# Results as given in patent US10981911B2, “Imidazopyrrolopyridine as inhibitors of the JAK family of kinases” (Janssen Pharmaceutica NV, priority 2016, dated 2021).
# Read-outs that look alike come from different tables or passages of the source.
# How the values were obtained:
# [1] = In vivo p.o. dosing: plasma and colon tissue concentrations (Protocols 1 and 2); parameters: species or system female C57BL/6 mice; details: female, C57BL/6, mouse, po, mice, 25 mg/kg p.o.
# Method: These protocols are described below under the heading In vivo Studies. Three non-fasted female C57BL/6 mice were orally administered test compound at a dose of 25 mg/kg p.o. as a solution in 20% hydroxypropyl-beta-cyclodextrin (HPβCD) at a dose volume of 5 mL/kg. Blood samples were collected at 0.5, 2, and 4 h post dose via retro-orbital bleed or venipuncture of the dorsal metatarsal vein. Blood samples were collected into tubes containing anticoagulant (Heparin-Na) and placed on wet ice. The plasma fraction was separated by centrifugation and frozen at −20° C. for up to 4 h and −80° C. after 4 h unless analyzed shortly after sample collection. Colon samples were collected at 4 h post dose. […] The colon was further washed by putting it in 5 mL of saline and shaken for 5 seconds. The colon sample was then patted dry, weighed, and homogenized as 1 part tissue (g) to 4 parts HPLC grade water (mL). Concentrations of the compound in plasma and colon homogenate were determined using a qualified liquid chromatography-triple quadrupole mass spectrometry (LC-MS/MS) method. […] Three non-fasted female C57BL/6 mice were orally administered test compound at a dose of 25 mg/kg p.o. as a solution in 20% HPβCD at a dose volume of 5 mL/kg. Blood samples were collected at 0.5, 2, and 4 h post dose via retro-orbital bleed or dorsal metatarsal vein. Blood samples were collected into tubes containing anticoagulant (Heparin-Na) and placed on wet ice. The plasma fraction was separated by centrifugation and frozen at −20° C. for up to 4 h and −80° C. after 4 h unless analyzed shortly after sample collection. Colon samples were collected at 4 h post dose. From 2 cm below the cecum, a 4 cm sample of the colon was dissected, cut open on the longitudinal axis, and the solid contents removed by flushing with 2 mL of saline. The colon was further washed by putting it in 5 mL of saline and shaken for 5 seconds. The colon sample was then patted dry, weighed, and homogenized as 1 part tissue (g) to 4 parts HPLC grade water (mL). Concentrations of the compound in plasma and colon homogenate were determined using a qualified liquid chromatography-triple quadrupole mass spectrometry (LC-MS/MS) method.
# [2] = system: GM-CSF pSTAT5 (JAK2/JAK2); experiment: GM-CSF pSTAT5 (JAK2/JAK2) cellular assay (AlphaLISA, PBMCs); assay type: cell-based; details: PBMC, GM-CSF at 11 pg/mL
# Method: The AlphaLISA assay (based on Alpha Technology from PerkinElmer) was performed by first plating freshly thawed PBMCs (Biological Specialty Corporation) in 384-well plates at 30,000 cells per 4 µL per well in HBSS containing 0.1% IgG-free, protease-free BSA (Jackson ImmunoResearch Cat. No. 001-000-161). The cells were then treated with 2 μL/well of compounds diluted in DMSO at half-log titrated concentrations, with a highest test concentration of […] and 0.5% final DMSO concentration, for thirty minutes at 37° C. Next, the cells were stimulated with 2 μL/well of GM-CSF (R&D Systems Cat. No. 215-GM-050) at 11 pg/mL for fifteen minutes at 37° C. The cellular reactions were terminated by the addition of 2 µL/well of lysis buffer (PerkinElmer Cat. No. ALSU-PST5-A10K) followed by an incubation of five minutes at room temperature. 5 μL/well of acceptor mix (PerkinElmer Cat. No. ALSU-PST5-A10K) was added to the cells and incubated in the dark for one hour at room temperature. Then, 5 μL/well of donor mix (PerkinElmer Cat. No. ALSU-PST5-A10K) was added to the cells and incubated in the dark overnight at room temperature. Finally, the plates were read on a PerkinElmer EnVision for detection of the time-resolved fluorescence signal. The percentage of GM-CSF-dependent pSTAT5 inhibition was determined at the compound test concentrations; and for each compound, a dose curve was generated and the IC50 was calculated. Compound IC50 was calculated by nonlinear regression, sigmoidal dose response analysis of the half-log dilution titration curve of the compound concentration vs. Alpha signal. The term “Alpha” is defined in the IL-2 pSTAT5 (JAK1/JAK3) cellular assay description.
# [3] = colon, read-out: Colon Concentration After p.o. Dosing, Mean
# [4] = plasma, read-out: Plasma Concentration After p.o. Dosing, Mean
SMILES,"concentration at 4 h [1, 3] [ng/g]","concentration at 0.5 h [1, 4] [ng/mL]","concentration at 2 h [1, 4] [ng/mL]","concentration at 4 h [1, 4] [ng/mL]",IC50 [2] [nM]
"CC(C)(O)CNC(=O)Cc1nc2cnc3[nH]ccc3c2n1[C@H]1CC[C@H](CC#N)CC1 [Ex. 1, 2-(1-((1r,4r)-4-(Cyanomethyl)cyclohexyl)-1,6-dihydroimidazo[4,5-d]pyrrolo[2,3-b]pyridin-2-yl)-N-(2-hydroxy-2-methylpropyl)acetamide]",8590,13.4,6.1,3.3,
"N#CCC1CCC(n2c(-c3c[nH]cn3)nc3cnc4[nH]ccc4c32)CC1 (stereo not shown) [Ex. 2, 2-((1r,4r)-4-(2-(1H-Imidazol-4-yl)imidazo[4,5-d]pyrrolo[2,3-b]pyridin-1(6H)-yl)cyclohexyl)acetonitrile]",7600,24.5,4.2,1.3,61
"N#CC[C@H]1CC[C@H](n2c(CC(=O)NCC3CC3)nc3cnc4[nH]ccc4c32)CC1 [Ex. 3, 2-(1-((1r,4r)-4-(Cyanomethyl)cyclohexyl)-1,6-dihydroimidazo[4,5-d]pyrrolo[2,3-b]pyridin-2-yl)-N-(cyclopropylmethyl)acetamide]",2150,41.4,3.9,1.5,21.9
"N#CCCNC(=O)Cc1nc2cnc3[nH]ccc3c2n1[C@H]1CC[C@H](CC#N)CC1 [Ex. 4, N-(2-Cyanoethyl)-2-(1-((1r,4r)-4-(cyanomethyl)cyclohexyl)-1,6-dihydroimidazo[4,5-d]pyrrolo[2,3-b]pyridin-2-yl)acetamide]",4450,12.9,7.5,3.3,119
"N#CC[C@H]1CC[C@H](n2c(CC(=O)NC3CCOCC3)nc3cnc4[nH]ccc4c32)CC1 [Ex. 5, 2-(1-((1r,4r)-4-(Cyanomethyl)cyclohexyl)-1,6-dihydroimidazo[4,5-d]pyrrolo[2,3-b]pyridin-2-yl)-N-(tetrahydro-2H-pyran-4-yl)acetamide]",5330,31.9,8.8,6,28.9
"N#CC[C@H]1CC[C@H](n2c(CC(=O)NCC3CCOCC3)nc3cnc4[nH]ccc4c32)CC1 [Ex. 10, 2-(1-((1r,4r)-4-(Cyanomethyl)cyclohexyl)-1,6-dihydroimidazo[4,5-d]pyrrolo[2,3-b]pyridin-2-yl)-N-((tetrahydro-2H-pyran-4-yl)methyl)acetamide]",11700,18.8,3,1.7,25.1
"CC(C)(C#N)CNC(=O)Cc1nc2cnc3[nH]ccc3c2n1[C@H]1CC[C@H](CC#N)CC1 [Ex. 22, N-(2-Cyano-2-methylpropyl)-2-(1-((1r,4r)-4-(cyanomethyl)cyclohexyl)-1,6-dihydroimidazo[4,5-d]pyrrolo[2,3-b]pyridin-2-yl)acetamide]",12000,47,9.6,5,67.3
"N#CC[C@H]1CC[C@H](n2c(CC(=O)NCC3(O)CCC3)nc3cnc4[nH]ccc4c32)CC1 [Ex. 34, 2-(1-((1r,4r)-4-(Cyanomethyl)cyclohexyl)-1,6-dihydroimidazo[4,5-d]pyrrolo[2,3-b]pyridin-2-yl)-N-((1-hydroxycyclobutyl)methyl)acetamide]",7400,43.1,5.4,2.6,33.8
"N#CCC12CCC(NC(=O)Cc3nc4cnc5[nH]ccc5c4n3[C@H]3CC[C@H](CC#N)CC3)(CC1)C2 [Ex. 55, N-(4-(Cyanomethyl)bicyclo[2.2.1]heptan-1-yl)-2-(1-((1r,4r)-4-(cyanomethyl)cyclohexyl)-1,6-dihydroimidazo[4,5-d]pyrrolo[2,3-b]pyridin-2-yl)acetamide]",3000,26.6,3.2,3.1,44.6
"N#CC[C@H]1CC[C@H](n2c(CC(=O)NCC3(O)CC3)nc3cnc4[nH]ccc4c32)CC1 [Ex. 85, 2-(1-((1r,4r)-4-(Cyanomethyl)cyclohexyl)-1,6-dihydroimidazo[4,5-d]pyrrolo[2,3-b]pyridin-2-yl)-N-((1-hydroxycyclopropyl)methyl)acetamide]",5880,15.6,4.2,2.3,75.4
